The values below come from patent publication US12240844B2 (Voronoi, Inc., priority 2019, dated 2025).

For one assay, the system named is MDA-MB-231 cell line. The assay is described as follows: MDA-MB-231 cancer cell proliferation inhibition (Cell Titer-Glo). The format is cell-based. As to conditions: Homo sapiens, MDA-MB-231 triple-negative breast cancer cell line, 72 hours. As to the method: (§1) In order to evaluate the cancer cell proliferation inhibitory activity of the compounds of the present invention, the following experiments were performed.
(§2) To evaluate the cancer cell proliferation inhibitory effect, the cell growth rate analysis was performed while culturing MDA-MB-231 cell line (Korean Cell Line Bank #30026) and MDA-MB-468 cell line as the triple-negative breast cancer cell line, and SHP-77 (ATCC #CRL-2195) as the small cell lung cancer cell line in DMEM (HyClone #SH30243) and RPMI medium (HyClone #SH3027.01), respectively. More specifically, the cell lines were each plated at 2000 cells/100 μl in each well of a 96-well flat-bottom plate (coming #3903), and then the example compounds having eleven concentrations which were diluted by ⅓ so that the final concentrations were 10.000000, 3.333333, 1.111111, 0.370370, 0.123457, 0.041152, 0.013717, 0.004572, 0.001524, 0.000508 and 0.000169 μM were treated. After 72 hours, 100 μl of Cell Titer-Glo (Promega G7573) was treated, incubated at RT for 10 minutes, and then luminescence was measured using a microplate reader. The measured luminescence degree was calculated as GI50 using Prism (version 8.2 GraphPad) software.
(§3) In the table below, the following designations were used for the evaluation of proliferation inhibitory activity.
On the technique in general: In ATP-based viability assays light output follows the ATP content of the culture.

The next assay deals with LRRK2 (G2019S) (Homo sapiens, UniProt Q5S007, G2019S). The assay is described as follows: LRRK2 G2019S enzyme inhibition, ADP-Glo kinase assay. Also on record: purchased SignalChem L10-12GG. The format is biochemical. In short, it runs like this:
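Purified human LRRK2 G2019S (16 ng) with 25 μM ATP and 0.2 μg substrate, 2 h at 25° C in 40 mM Tris-HCl pH 7.4, 20 mM MgCl2, 0.5 mg/ml BSA, 50 μM DTT; compound at 12 final concentrations from 50 μM downward. ADP-Glo luminescence versus solvent control gave IC50 (nM).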
On the technique in general: ADP-Glo turns the ADP formed in a reaction into a luminescent signal.

The target in assay [1] is T1, human GST-DYRK1A (full length) (Homo sapiens, UniProt Q13627).
T1 construct: purified human GST-DYRK1A (full length, Thermo scientifics) enzyme; GST; purchased Thermo scientifics
Put plainly: GST-DYRK1A enzyme inhibition, ADP-Glo kinase assay. The format is biochemical. The settings on record: read-out: DYRK1 IC50. In outline:
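Full-length human GST-DYRK1A (10 ng) incubated with 10 uM ATP and specific substrate for 1 h at 25° C in 40 mM Tris-HCl pH 7.4, 20 mM MgCl2, 0.5 mg/mL BSA, 50 uM DTT. ADP formation read by ADP-Glo luminescence; IC50 (nM) versus solvent control, triplicate.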

For another assay, the system named is SHP-77. Put plainly: SHP-77 cancer cell proliferation inhibition (Cell Titer-Glo). The format is cell-based. As to conditions: Homo sapiens, SHP77, SHP-77 small cell lung cancer cell line, 72 hours. The protocol:
as §1, §2, §3

The next assay deals with T2, human GST-CLK1 (129-end) (Homo sapiens, UniProt P49759).
T2 construct: purified human GST-CLK1 (129-end, Signalchem) enzyme; GST; purchased Signalchem
Put plainly: GST-CLK1 enzyme inhibition, ADP-Glo kinase assay. The format is biochemical. The settings on record: ATP 10 uM. In outline: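 GST-CLK1 (129-end, 3 ng) reacted with 10 uM ATP and substrate in 40 mM Tris-HCl pH 7.4, 20 mM MgCl2, 0.5 mg/mL BSA, 50 uM DTT, 1 h at 25° C. ADP-Glo luminescence normalised to solvent control; IC50 from triplicate data.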

A further assay concerns the target LRRK2 (Homo sapiens, UniProt Q5S007). Put plainly: LRRK2 enzyme inhibition, ADP-Glo kinase assay. Also on record: purchased Invitrogen PR8604B. The format is biochemical. In short, it runs like this:
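Purified human LRRK2 (25 ng) in 40 mM Tris-HCl pH7.4, 20 mM MgCl2, 0.5 mg/ml BSA, 50 μM DTT with 10 μM ATP and substrate ([…]), 2 h at 25° C. Final compound 50 to 0.000001024 μM, 12-point dilution. ADP-Glo luminescence vs solvent control; IC50 (nM).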

A further assay has as its system human DYRK1A and Tau. The assay is described as follows: Tau phosphorylation inhibition, ClariCELL Kinase Cell-Based Assay (Carnabio). As to the method:
Tau phosphorylation inhibitory efficacy was measured using the ClariCELL™ Kinase Cell-Based Assay service of Carnabio, located in the United States. The compounds are exposed to human embryonic kidney ([…]) cells transiently expressing human DYRK1A and Tau, and then the cells are lysed to release cellular proteins. At this time, the released Tau is captured on a plate, and the degree of phosphorylation is quantified by ELISA using an antibody specific for Tau phosphorylation.

Where only a bound is given, the exact number is not on record here.

Sequence of LRRK2 (G2019S) (Q5S007 970-2527 G2019S limits assumed): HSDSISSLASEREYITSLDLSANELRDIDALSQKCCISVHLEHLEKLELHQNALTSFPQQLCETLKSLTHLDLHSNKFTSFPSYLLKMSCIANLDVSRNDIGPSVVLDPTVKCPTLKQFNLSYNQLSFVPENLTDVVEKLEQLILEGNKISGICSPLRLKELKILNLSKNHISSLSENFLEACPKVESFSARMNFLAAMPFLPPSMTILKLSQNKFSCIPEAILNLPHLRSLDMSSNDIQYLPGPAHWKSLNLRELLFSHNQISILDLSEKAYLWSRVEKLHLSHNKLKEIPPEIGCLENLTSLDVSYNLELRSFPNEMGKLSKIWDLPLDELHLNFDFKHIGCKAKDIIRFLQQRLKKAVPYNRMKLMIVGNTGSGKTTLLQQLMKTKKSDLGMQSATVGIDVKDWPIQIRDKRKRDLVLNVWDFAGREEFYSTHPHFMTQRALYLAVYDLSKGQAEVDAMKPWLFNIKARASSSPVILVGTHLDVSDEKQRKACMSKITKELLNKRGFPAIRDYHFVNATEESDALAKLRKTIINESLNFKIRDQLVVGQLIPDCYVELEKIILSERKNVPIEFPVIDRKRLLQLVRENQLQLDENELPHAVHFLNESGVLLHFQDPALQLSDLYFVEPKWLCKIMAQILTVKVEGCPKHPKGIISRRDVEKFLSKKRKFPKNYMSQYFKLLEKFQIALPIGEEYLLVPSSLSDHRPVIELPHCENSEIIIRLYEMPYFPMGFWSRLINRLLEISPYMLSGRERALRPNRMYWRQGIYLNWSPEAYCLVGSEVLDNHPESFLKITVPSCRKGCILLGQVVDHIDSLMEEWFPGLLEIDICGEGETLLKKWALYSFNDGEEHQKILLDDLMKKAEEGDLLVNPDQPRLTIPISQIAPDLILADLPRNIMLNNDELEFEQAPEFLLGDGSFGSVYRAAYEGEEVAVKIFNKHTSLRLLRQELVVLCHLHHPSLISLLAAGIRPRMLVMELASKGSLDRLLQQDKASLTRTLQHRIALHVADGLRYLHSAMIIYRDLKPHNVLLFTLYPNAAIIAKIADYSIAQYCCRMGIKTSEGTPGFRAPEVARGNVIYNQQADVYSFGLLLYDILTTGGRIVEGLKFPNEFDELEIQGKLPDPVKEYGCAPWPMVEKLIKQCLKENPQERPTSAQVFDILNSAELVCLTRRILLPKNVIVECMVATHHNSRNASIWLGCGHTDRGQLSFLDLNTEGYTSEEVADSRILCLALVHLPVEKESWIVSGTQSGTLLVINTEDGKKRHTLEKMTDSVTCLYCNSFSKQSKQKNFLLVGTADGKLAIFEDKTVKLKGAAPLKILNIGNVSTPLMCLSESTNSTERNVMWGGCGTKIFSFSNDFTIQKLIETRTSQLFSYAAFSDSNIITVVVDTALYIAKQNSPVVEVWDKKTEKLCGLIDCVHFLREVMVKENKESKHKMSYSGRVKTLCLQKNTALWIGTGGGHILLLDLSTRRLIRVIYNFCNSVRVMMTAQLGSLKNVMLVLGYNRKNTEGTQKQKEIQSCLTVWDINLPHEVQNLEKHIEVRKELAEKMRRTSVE
Sequence of LRRK2 (Q5S007 970-2527 limits assumed): as the sequence (Q5S007 970-2527 G2019S limits assumed) above, with S1050G counted along it
T2 sequence (P49759 129-484 limits assumed): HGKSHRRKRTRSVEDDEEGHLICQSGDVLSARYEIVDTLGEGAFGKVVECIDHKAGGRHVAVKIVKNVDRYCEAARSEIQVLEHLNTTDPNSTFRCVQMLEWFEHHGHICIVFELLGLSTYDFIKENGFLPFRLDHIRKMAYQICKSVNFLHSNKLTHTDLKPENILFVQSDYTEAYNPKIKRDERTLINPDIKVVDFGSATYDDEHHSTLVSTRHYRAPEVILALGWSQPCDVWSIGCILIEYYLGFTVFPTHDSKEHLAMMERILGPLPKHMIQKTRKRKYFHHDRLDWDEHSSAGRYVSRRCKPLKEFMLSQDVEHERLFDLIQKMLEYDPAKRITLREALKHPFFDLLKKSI

As a reminder, the GI50 is the concentration at which growth is held to half of that of the control. What is called IC50 is the point on the concentration scale where inhibition reaches its midpoint. On to `CNc1cc(Nc2ccc(S(=O)(=O)N3CCOCC3)cc2OC)nc2[nH]ccc12` [Example 10, N^6-(2-methoxy-4-(morpholinosulfonyl)phenyl)-N^4-methyl-1H-pyrrolo[2,3-b]pyridine-4,6-diamine], for which the GI50 in the assay on MDA-MB-231 cell line and in the assay with SHP-77 was 0.301 to 1 µM throughout. Further, the IC50 against LRRK2 (G2019S) fell in the range of 0.101 to 0.3 µM; in assay [1], 0.301 to 1 µM; on human GST-CLK1 (129-end) it was 0.301 to 1 µM.
`CCNc1cc(Nc2ccc(P3(=O)CCN(C4COC4)CC3)cc2OC)nc2[nH]cc(C(F)(F)F)c12` [Example 39, 4-(4-((4-(ethylamino)-3-(trifluoromethyl)-1H-pyrrolo[2,3-b]pyridin-6-yl)amino)-3-methoxyphenyl)-1-(oxetan-3-yl)-1,4-azaphosphinane 4-oxide]: the GI50 with MDA-MB-231 cell line is 0.301 to 1 µM. Further, the IC50 against LRRK2 lay within 0.101 to 0.3 µM; in assay [1], 0.101 to 0.3 µM; at human GST-CLK1 (129-end), 0.301 to 1 µM.
Compound `COCCNc1cc(Nc2ccc(P3(=O)CCN(C4COC4)CC3)cc2OC)nc2[nH]cc(C(F)(F)F)c12` [Example 41, 4-(3-methoxy-4-((4-((2-methoxyethyl)amino)-3-(trifluoromethyl)-1H-pyrrolo[2,3-b]pyridin-6-yl)amino)phenyl)-1-(oxetan-3-yl)-1,4-azaphosphinane 4-oxide] gave a GI50 with MDA-MB-231 cell line of 0.301 to 1 µM. For the same compound, the IC50 (against LRRK2; in assay [1]; on human GST-CLK1 (129-end)) was less than 0.1 µM each time.
For orientation: inhibition means the drop in the measured response relative to a control, in per cent. For the compound `COCCNc1cc(Nc2ccc(P3(=O)CCN(C4CCOCC4)CC3)cc2OC)nc2[nH]cc(C(F)(F)F)c12` [Example 95, 4-(3-methoxy-4-((4-((2-methoxyethyl)amino)-3-(trifluoromethyl)-1H-pyrrolo[2,3-b]pyridin-6-yl)amino)phenyl)-1-(tetrahydro-2H-pyran-4-yl)-1,4-azaphosphinane 4-oxide], the GI50 with MDA-MB-231 cell line fell in the range of 0.301 to 1 µM. Besides, the concentration for half-maximal inhibition (IC50) at LRRK2 is 0.101 to 0.3 µM; against LRRK2 (G2019S), 0.101 to 0.3 µM; in assay [1] it was less than 0.1 µM; on human GST-CLK1 (129-end), 0.101 to 0.3 µM. In addition, the inhibition at 0.25 µM in the assay with human DYRK1A and Tau stood at 9.5%. For the same compound, the inhibition at 0.5 µM in the assay on human DYRK1A and Tau came out at 29.2%. Further, the inhibition at 1 µM in the assay on human DYRK1A and Tau is 33.3%.
Regarding `O=C(c1ccc(Nc2cc(NC3CC3)c3c(C(F)(F)F)c[nH]c3n2)c2c1OCCO2)N1CCC(N2CCOCC2)CC1` [Example 163, (8-((4-(cyclopropylamino)-3-(trifluoromethyl)-1H-pyrrolo[2,3-b]pyridin-6-yl)amino)-2,3-dihydrobenzo[b] [1,4]dioxin-5-yl)(4-morpholinopiperidin-1-yl)methanone], the GI50 in the assay with MDA-MB-231 cell line is 0.301 to 1 µM. Further, the IC50 at LRRK2 is less than 0.1 µM; at LRRK2 (G2019S) it was less than 0.1 µM; in assay [1], 0.101 to 0.3 µM; at human GST-CLK1 (129-end), less than 0.1 µM.
Consider `COc1cc(S(=O)(=O)N2CCC(N3CCOCC3)CC2)ccc1Nc1cc(NC(C)C)c2c(C(F)(F)F)c[nH]c2n1` [Example 198, N^4-isopropyl-N^6-(2-methoxy-4-((4-morpholinopiperidin-1-yl)sulfonyl)phenyl)-3-(trifluoromethyl)-1H-pyrrolo[2,3-b]pyridine-4,6-diamine], for which the GI50 with MDA-MB-231 cell line and in the assay on SHP-77 was 0.301 to 1 µM each time. Moreover, the IC50 (in assay [1]; against human GST-CLK1 (129-end)) was 0.301 to 1 µM each time.
Consider `CCNc1cc(Nc2ccc(C(=O)N3CC[C@H](N4CCOCC4)C3)c3c2OCC3)nc2[nH]cc(C(F)(F)F)c12` [Example 215, (S)-(7-((4-(ethylamino)-3-(trifluoromethyl)-1H-pyrrolo[2,3-b]pyridin-6-yl)amino)-2,3-dihydrobenzofuran-4-yl)(3-morpholinopyrrolidin-1-yl)methanone], for which the IC50 (at LRRK2; at LRRK2 (G2019S); in assay [1]; against human GST-CLK1 (129-end)) was less than 0.1 µM throughout. In addition, in the assay on human DYRK1A and Tau, the inhibition at 0.25 µM turned out to be 30%. In addition, the inhibition at 0.5 µM in the assay on human DYRK1A and Tau was 70.8%. The inhibition at 1 µM in the assay on human DYRK1A and Tau worked out at 82%.
With `CNc1cc(Nc2ccc(P3(=O)CCN(C4CCOCC4)CC3)cc2OC)nc2[nH]cc(C(F)(F)F)c12` [Example 216, 4-(3-methoxy-4-((4-(methylamino)-3-(trifluoromethyl)-1H-pyrrolo[2,3-b]pyridin-6-yl)amino)phenyl)-1-(tetrahydro-2H-pyran-4-yl)-1,4-azaphosphinane 4-oxide], the GI50 in the assay on MDA-MB-231 cell line was in the range of 0.301 to 1 µM. Besides, the concentration for half-maximal inhibition (IC50) at LRRK2 is 0.101 to 0.3 µM; at LRRK2 (G2019S) it was 0.101 to 0.3 µM; in assay [1], less than 0.1 µM; against human GST-CLK1 (129-end) it was less than 0.1 µM. Further, the inhibition at 0.25 µM in the assay on human DYRK1A and Tau worked out at 22.8%. In the assay with human DYRK1A and Tau, the inhibition at 0.5 µM came to 30.3%. For the same compound, the inhibition at 1 µM in the assay with human DYRK1A and Tau came to 49.5%.
`CNc1cc(Nc2ccc(S(=O)(=O)N3CCC(N4C[C@@H]5C[C@H]4CO5)CC3)cc2OC)nc2[nH]cc(C(F)(F)F)c12` [Example 242, N^6-(4-((4-((1S,4S)-2-oxa-5-azabicyclo[2.2.1]heptan-5-yl)piperidin-1-yl)sulfonyl)-2-methoxyphenyl)-N^4-methyl-3-(trifluoromethyl)-1H-pyrrolo[2,3-b]pyridine-4,6-diamine]: the IC50 (on LRRK2; at LRRK2 (G2019S); in assay [1]; against human GST-CLK1 (129-end)) was less than 0.1 µM each time. Further, the inhibition at 0.25 µM in the assay on human DYRK1A and Tau worked out at 49.8%. For the same compound, in the assay with human DYRK1A and Tau, the inhibition at 0.5 µM was 77.2%. The inhibition at 1 µM in the assay on human DYRK1A and Tau stood at 108%.
`CCNc1cc(Nc2ccc(C(=O)N3CCN(C4CC4)CC3)c3c2OCC3)nc2[nH]cc(C(F)(F)F)c12` [Example 250, (4-cyclopropylpipe razin-1-yl)(7-((4-(ethylamino)-3-(trifluoromethyl)-1H-pyrrolo[2,3-b]pyridin-6-yl)amino)-2,3-dihydrobenzofuran-4-yl)methanone]: the inhibition at 0.25 µM with human DYRK1A and Tau came out at 34%. Also, the inhibition at 0.5 µM in the assay with human DYRK1A and Tau was determined as 59.8%. The inhibition at 1 µM with human DYRK1A and Tau was determined as 82.8%. Further, the IC50 against LRRK2 (G2019S) was 0.101 to 0.3 µM; in assay [1], 0.101 to 0.3 µM; against human GST-CLK1 (129-end), less than 0.1 µM.
Consider `C=CCNc1cc(Nc2ccc(C(=O)N3CCC(N4CCOCC4)CC3)c3c2OCC3)nc2[nH]cc(C(F)(F)F)c12` [Example 255, (7-((4-(allylamino)-3-(trifluoromethyl)-1H-pyrrolo[2,3-b]pyridin-6-yl)amino)-2,3-dihydrobenzofuran-4-yl)(4-morpholinopiperidin-1-yl)methanone], for which, in the assay on human DYRK1A and Tau, the inhibition at 0.25 µM was found to be 47.7%, the inhibition at 0.5 µM came to 89.2% and the inhibition at 1 µM turned out to be 104%. For the same compound, at LRRK2 (G2019S), the IC50 is less than 0.1 µM. In addition, the concentration for half-maximal inhibition (IC50) in assay [1] is less than 0.1 µM. The compound further registered a half-maximal inhibitory concentration (IC50) against human GST-CLK1 (129-end) of less than 0.1 µM.
`CNc1cc(Nc2cc(F)c(S(=O)(=O)N3CCC(N4CCOCC4)CC3)cc2OC)nc2[nH]cc(C(F)(F)F)c12` [Example 265, N^6-(5-fluoro-2-methoxy-4-((4-morpholinopiperidin-1-yl)sulfonyl)phenyl)-N^4-methyl-3-(trifluoromethyl)-1H-pyrrolo[2,3-b]pyridine-4,6-diamine]: the GI50 in the assay on MDA-MB-231 cell line and with SHP-77 was 0.301 to 1 µM in each case. Further, the IC50 on LRRK2 (G2019S) was less than 0.1 µM; in assay [1] it was 0.101 to 0.3 µM; at human GST-CLK1 (129-end) it was 0.301 to 1 µM.
